Data from patent publication US8889638B2, “Stimulus-triggered prodrugs” (The Regents of the University of California, priority 2010, dated 2014).
pIC50: −log10 of the molar value.

How the values were obtained:
[1] = target: T1, MMP-9 (catalytic domain, human, recombinant) (Homo sapiens, UniProt P14780); experiment: MMP-9 inhibition assay of boronic ester proinhibitors (IC50; activation with H2O2); format: biochemical; settings: active inhibitor; read-out: IC50 against MMP-9
T1 construct: MMP-9 (catalytic domain, human, recombinant); purchased BIOMOL International
Procedure: MMP-9 (catalytic domain, human, recombinant) and MMP-12 (catalytic domain, human, recombinant) were purchased from Enzo Life Sciences. The assays were carried out in 96-well plates using a Bio-Tek Flx 800 plate reader. IC50 values were obtained for proinhibitors B17 and B18 against MMP-9 and MMP-12. Serial dilutions of the compounds dissolved in DMSO were incubated at 37° C. for 30 minutes with 20 μL of the appropriate MMP (0.45 U/mL for MMP-9 and 0.35 U/mL for MMP-12) in MMP assay buffer (50 mM HEPES, 10 mM CaCl2, 0.10% Brij-35, pH 7.5), for a total volume of 99 pt. The reaction was initiated by the addition of 1 μL (400 μM) of the fluorescent substrate (Mca-Pro-Leu-Gly-Leu-Dpa-Ala-Arg-NH2 where Mca=(7-methoxycoumarin-4-yl)-acetyl and Dpa=N-3-(2,4-dinitrophenyl)-L-α-β-diaminopropionyl)) and kinetic activity was measured every minute for 20 min with excitation and emission wavelengths at 335 nm and 405 nm, respectively. Measurements were performed in duplicate. The percent inhibition was plotted versus the inhibitor concentration. A linear fit of the data for each experiment gives the IC50 value of the inhibitor where y=50%.
MMP activity in the presence of H2O2 was evaluated with both MMP-9 and MMP-12 with 1 h of activation at concentrations close to their IC50 values. Using the calculated rate constants for the protected ZBGs B19 and B20, it was determined that 1 h of activation time for each proinhibitor with 100 μM H2O2 will provide enough 1,2-HOPO-2 or PY-2 to inhibit the MMPs at 50%. For example, for proinhibitor B17 with MMP-9, if the rate=k[B17][H2O2] and k=3.9 M^−1s^−1, [B17]=10 μM, and [H2O2]=100 μM, the rate of conversion would be 3.9×10^−9 M/s. Therefore, activation for 1 h would release 14 μM 1,2-HOPO-2, or enough inhibitor to provide approximately 50% inhibition of MMP-9 (IC50 value for 1,2-HOPO-2 against MMP-9 is ˜6 μM).
In each well, 1 μL of proinhibitors B17 and B18 and the inhibitors 1,2-HOPO-2 and PY-2 in DMSO (1 mM for MMP-9 or 5 μM for MMP-12) were incubated for 1 h at 37° C. with 10 μL H2O2 (1 mM in HEPES buffer, pH 7.5) in MMP assay buffer for a total volume of 79 pt. […] After activation of the proinhibitors, 20 μL of the appropriate MMP (0.45 U/mL for MMP-9 and 0.35 U/mL for MMP-12) was added and incubated for an additional 30 min. The reaction was initiated by the addition of 1 pt (400 μM) of the fluorescent substrate and kinetic activity was measured every minute for 20 min with excitation and emission wavelengths at 335 nm and 405 nm, respectively. Enzyme activity with inhibitor was calculated with respect to the control experiment (no inhibitor present). Measurements were performed in duplicate in two independent experiments.

MMP-3 = MMP-3 (Homo sapiens, UniProt P08254); settings: read-out: IC50 against MMP-3; cited from earlier work
MMP-8 = MMP-8 (Homo sapiens, UniProt P22894); settings: read-out: IC50 against MMP-8; cited from earlier work
MMP-12 = MMP-12 (Homo sapiens, UniProt P39900); settings: read-out: IC50 against MMP-12; cited from earlier work
[2] = Cleavage of boronic ester/acid protected compounds by H2O2 (UV-Vis, rate constant, HPLC); format: physicochemical; settings: for k, pseudo first-order rate constants calculated with an excess of H2O2: 50 μM in HEPES buffer pH 7.5, room temperature; for rate constant of conversion with an excess of H2O2: pseudo-first order conditions, HEPES buffer
Procedure: (§1) Absorption spectra of compounds B1-B16 were taken on a Perkin-Elmer Lambda 25 UV-visible spectrophotometer. To a 1.0 mL solution at 0.05 mM concentration in HEPES buffer (50 mM, pH 7.5) was added H2O2 (10 uL (0.09 M) in HEPES for compounds B1-B12 and B14-B16, 10 uL (0.9 M) in HEPES for compound B3, and 2.8 uL (0.09 M) in HEPES for compound B13). Spectra were monitored over time at room temperature. Absorption spectra of compounds B17-B21 were taken on a Perkin-Elmer Lambda 25 UV-visible spectrophotometer. To a 1.0 mL solution at 0.05 mM concentration of compounds 1-7 in HEPES buffer (50 mM, pH=7.5) was added H2O2 (10 uL, 0.09 M in HEPES) or KO2 (0.10 mM) with catalase (5 U). Hydrolytic stability was measured by monitoring samples of B19-B21 in HEPES buffer for a 24 h time period. Spectra were monitored over time at room temperature.
The pseudo-first order rate constant was calculated by monitoring the absorption spectra over time in the presence of excess hydrogen peroxide. To a 1.0 mL solution of compounds B1-B3 and B10-B14 in HEPES buffer (50 mM, pH 7.5) at 50 μM was added H2O2 to final concentrations of 150 μM, 250 μM, 500 μM, 750 μM, and 900 μM. Spectra were monitored over 15-30 min at room temperature with at least 50 spectra recorded. The change in absorption at 302 nm for B1-B3, 272 nm for B10, 312 nm for B11, 268 for B12, 306 nm for B13, and 303 nm for B14 were monitored. For compounds B1-B3 and B10-B11, the rate constant (kobs) was found from monitoring the appearance of the monitored absorption peak by plotting the linear slope of ln [(A∞−At)/(A∞)] vs. time (where A∞ is the absorbance of a 50 μM sample of the methyl salicylate for B1-B3, maltol for B10, and 1,2-HOPO for B11). For compounds B12-B14 the rate constant (kobs) was found from monitoring the disappearance of the monitored absorption peak by plotting the linear slope of ln [(A−AZBG)/(A0−AZBG)] vs. time (where AZBG is the absorbance of a 50 μM sample of the ZBG and A0 is the initial absorbance of […]).^3 The rate of conversion was determined from the slope of the line of kobs vs. [H2O2]. The pseudo-first order rate constant was calculated following literature procedure.^[15] To a 1.0 mL solution of compounds B19-B21 in HEPES buffer at 50 μM was added H2O2 to final concentrations of 150 μM, 250 μM, 500 μM, 750 μM, and 900 μM. Spectra were monitored over 15-30 min at room temperature with at least 50 spectra recorded. The change in absorption at 292 nm for B19 and 252 nm for B20 and B21 were monitored. The rate constant (kobs) was found from the linear slope of ln [(A−AZBG)/(A0−AZBG)] vs. time (where AZBG is the absorbance of a 50 μM sample of the ZBG and A0 is the initial absorbance of B19-B21). The rate of conversion was determined from the slope of the line of kobs vs. [H2O2].
Analytical HPLC was performed on a HP Series 1050 system equipped with a Vydac® C18 reverse phase column (218 TP, 250×4.6 mm, 5 μm). […] Starting with 95% A and 5% B, an […] gradient was run for 15 min to a final solvent mixture of 5% A and 95% B, which was held for 5 min before ramping back down to 95% A and 5% B in 2 min and holding for an additional 4 min. Compounds were prepared in HEPES buffer (50 mM, pH 7.5) at a concentration of 1 mM. Retention times of compounds were determined under identical HPLC conditions prior to and after reaction with H2O2. LC-MS(+) was performed on compounds B6, B15 and B16 to confirm cleavage of the boronic ester to the phenolic moiety.

[3] = Solubility in buffered solution / water; format: physicochemical; settings: relative to the parent analog
[4] = Cleavage of sulfonate ester PZBGs and proMMPi by H2O2 (UV-Vis, rate constant, HPLC); format: physicochemical; settings: 50 μM in HEPES buffer, room temperature
Procedure: (§2) Absorption spectra of compounds were taken on a Perkin-Elmer Lambda 25 UV-Visible Spectrophotometer. To a 1.0 mL solution at 0.05 mM concentration of each compound in HEPES buffer (50 mM, pH 7.5) was added H2O2 (10 μL, 0.09M in HEPES) and absorption spectra were monitored over time at room temperature. Hydrolytic stability was measured by monitoring each sample in HEPES buffer over a 24 hour time period.
The pseudo-first order rate constant was calculated following literature procedure. To a 1.0 mL solution of compounds PZBG-1a, PZBG-1b, PZBG-1e, PZBG-5a, and PZBG-5b in HEPES buffer at 50 μM was added H2O2 to final concentrations of 150 μM, 250 μM, 500 μM, 750 μM, and 900 μM. Spectra were monitored over 15-30 min at room temperature with at least 50 spectra recorded at every concentration. The change in absorption at 298 nm for PZBG-1a and PZBG-1b were monitored, while the change in absorption at 288 nm was recorded for PZBG-1e, and 310 nm for PZBG-5a and PZBG-5b. The rate constant (kobs) was found from the linear slope of ln [(A−AZBG)/(Ao−AZBG)] vs. time where AZBG is the absorbance of a 50 μM sample of the ZBG or full-length inhibitor and AO is the initial absorbance of PZBG-1a, PZBG-1b, PZBG-1e, PZBG-5a, and PZBG-5b. The rate of conversion was determined from the slope of the line of kobs vs. [H2O2].
Analytical HPLC was performed on a HP Series 1050 system equipped with a Vydac® C18 reverse phase column (218 TP, 250×4.6 mm, 5 μm). […] Starting with 95% A and 5% B, an […] gradient was run for 15 min to a final solvent mixture of 5% A and 95% B, which was held for 5 min before ramping back down to 95% A and 5% B in 2 min and holding for an additional 4 min. Compounds ZBG-1a and PZBG-1a were prepared in HEPES buffer (50 mM, pH 7.5) at a concentration of 1 mM and retention times were determined. To evaluate cleavage by H2O2, a 1 mM solution of PZBG-1a in HEPES buffer was reacted with a 20-fold excess of H2O2 before analyzing under identical HPLC conditions as before.

[5] = Hydrolytic stability of sulfonate esters in HEPES buffer; format: physicochemical; settings: in 6 h
Procedure: as §2

[6] = Hydrolytic stability of boronic ester compounds in HEPES buffer; format: physicochemical; settings: 24 h time period
Procedure: as §1

[7] = Stability of protected ZBGs towards KO2 with catalase; format: physicochemical; settings: KO2 0.10 mM and catalase 5 U, 60 min
Procedure: as §1

T1 sequence (P14780 107-444 limits assumed): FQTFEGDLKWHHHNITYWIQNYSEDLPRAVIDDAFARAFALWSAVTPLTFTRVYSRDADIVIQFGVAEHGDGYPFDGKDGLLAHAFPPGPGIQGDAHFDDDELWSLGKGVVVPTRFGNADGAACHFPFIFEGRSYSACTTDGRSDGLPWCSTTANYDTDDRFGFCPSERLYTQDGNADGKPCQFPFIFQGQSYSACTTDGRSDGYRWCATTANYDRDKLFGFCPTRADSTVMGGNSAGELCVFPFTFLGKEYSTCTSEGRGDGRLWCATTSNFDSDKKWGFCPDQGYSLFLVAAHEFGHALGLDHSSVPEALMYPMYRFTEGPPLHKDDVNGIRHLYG
MMP-3, sequence (P08254 100-477, species assumed): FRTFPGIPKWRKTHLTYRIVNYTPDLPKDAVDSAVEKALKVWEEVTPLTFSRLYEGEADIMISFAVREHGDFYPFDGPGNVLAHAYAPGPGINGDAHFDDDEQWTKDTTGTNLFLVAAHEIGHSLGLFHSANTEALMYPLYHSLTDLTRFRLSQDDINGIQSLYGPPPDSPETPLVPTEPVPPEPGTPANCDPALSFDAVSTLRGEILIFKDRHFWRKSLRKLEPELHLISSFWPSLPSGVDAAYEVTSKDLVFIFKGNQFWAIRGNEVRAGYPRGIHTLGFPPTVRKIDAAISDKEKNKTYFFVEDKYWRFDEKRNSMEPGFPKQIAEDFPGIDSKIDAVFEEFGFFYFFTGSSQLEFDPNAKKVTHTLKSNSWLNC
MMP-12, sequence (P39900 106-470): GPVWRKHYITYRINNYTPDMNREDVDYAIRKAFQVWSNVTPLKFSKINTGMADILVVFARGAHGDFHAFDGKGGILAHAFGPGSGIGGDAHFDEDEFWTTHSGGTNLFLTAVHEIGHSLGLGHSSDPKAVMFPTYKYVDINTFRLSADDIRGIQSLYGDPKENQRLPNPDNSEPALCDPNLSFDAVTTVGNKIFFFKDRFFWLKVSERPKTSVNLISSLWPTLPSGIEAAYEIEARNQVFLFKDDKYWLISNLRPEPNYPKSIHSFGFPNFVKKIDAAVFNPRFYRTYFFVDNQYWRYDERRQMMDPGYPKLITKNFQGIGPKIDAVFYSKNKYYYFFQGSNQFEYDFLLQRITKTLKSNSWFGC
MMP-8, sequence (P22894 101-467): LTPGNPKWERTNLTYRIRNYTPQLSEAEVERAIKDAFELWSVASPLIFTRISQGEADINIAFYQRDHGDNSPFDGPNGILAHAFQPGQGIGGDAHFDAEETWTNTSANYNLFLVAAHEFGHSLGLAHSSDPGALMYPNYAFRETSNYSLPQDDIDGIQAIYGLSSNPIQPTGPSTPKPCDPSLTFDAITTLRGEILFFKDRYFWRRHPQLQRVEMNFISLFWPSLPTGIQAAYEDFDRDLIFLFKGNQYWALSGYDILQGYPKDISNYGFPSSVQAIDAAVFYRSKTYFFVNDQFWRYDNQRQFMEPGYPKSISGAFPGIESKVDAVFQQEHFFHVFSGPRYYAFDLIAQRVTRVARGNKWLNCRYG

Structure (SMILES)	solubility [3]	solution stability in buffer [6]	stability towards KO2 [7]	k, pseudo first-order rate constants calculated with an excess of H2O2 [2] [M⁻¹ s⁻¹]	rate constant of conversion with an excess of H2O2 [2] [M⁻¹ s⁻¹]	further results
O=C(NCc1ccc(-c2ccccc2)cc1)c1cccc(=O)n1O [1,2-HOPO-2, N-(Biphenyl-4-ylmethyl)-1-hydroxy-6-oxo-1,6-dihydropyridine-2-carboxamide]						pIC50 [1]: ~5.22; pIC50 (MMP-3): > 7.00; pIC50 (MMP-8): > 7.00; pIC50 (MMP-12): > 7.00
Cc1occc(=O)c1OCc1ccc(B(O)O)cc1 [Compound B10, (4-(((2-Methyl-4-oxo-4H-pyran-3-yl)oxy)methyl)phenyl)boronic acid]	improved solubility			3.1 ± 0.5		
O=C(O)c1ccc(S(=O)(=O)On2ccccc2=O)cc1 [PZBG-1e, 4-(((2-Oxopyridin-1(2H)-yl)oxy)sulfonyl)benzoic acid]	substantial increase in solubility					pseudo-first order rate constant with an excess of H2O2 [4]: 1.3 M⁻¹ s⁻¹; cleavage in buffer [5]: ~50%
O=c1ccccn1OCc1ccc(B(O)O)cc1 [Compound B11, (4-(((2-Oxopyridin-1(2H)-yl)oxy)methyl)phenyl)boronic acid]	improved solubility			5.9 ± 0.2	5.9	
CC1(C)OB(c2ccc(COn3ccccc3=O)cc2)OC1(C)C [Compound B19, 1-((4-(4,4,5,5-tetramethyl-1,3,2-dioxaborolan-2-yl)benzyl)oxy)pyridin-2(1H)-one]		stable	stable towards KO2		4.0	
Cc1occc(=O)c1OCc1ccc(B2OC(C)(C)C(C)(C)O2)cc1 [Compound B20, 2-methyl-3-((4-(4,4,5,5-tetramethyl-1,3,2-dioxaborolan-2-yl)benzyl)oxy)-4H-pyran-4-one]		stable	stable towards KO2		2.9	
